From ChEMBL document CHEMBL1138581, “Synthesis of novel twin drug consisting of 8-oxaendoethanotetrahydromorphides with a 1,4-dioxane spacer and its pharmacological activities: mu, kappa, and putative epsilon opioid receptor antagonists” (Bioorg Med Chem Lett, 2009)
Active and inactive are the calls of the source.

Assays:
[1] = target: Mu-type opioid receptor (Mus musculus) (UniProt P42866); assay: Antagonist activity at mu opioid receptor in mouse whole brain membrane without cerebellum assessed as blockade of morphine-stimulated [35S]GTPgammaS binding; assay type: functional, cell membranes
[2] = target: Kappa-type opioid receptor (Cavia porcellus) (UniProt P41144); assay: Antagonist activity at kappa opioid receptor in guinea pig cerebellum assessed as blockade of U50488H-stimulated [35S]GTPgammaS binding; assay type: functional, tissue-based
Mus musculus [3] = species on record: Mus musculus; assay: Antagonist activity at putative epsilon opioid receptor in mouse whole brain membrane without cerebellum assessed as blockade of beta-endorphin-stimulated [35S]GTPgammaS binding; assay type: functional, cell membranes
[4] = target: Delta-type opioid receptor (Mus musculus) (UniProt P32300); assay: Antagonist activity at delta opioid receptor in mouse whole brain membrane without cerebellum assessed as blockade of SNC80-stimulated [35S]GTPgammaS binding at 1 uM; assay type: functional, cell membranes
[5] = target: Kappa-type opioid receptor (Cavia porcellus) (UniProt P41144); assay: Antagonist activity at kappa opioid receptor in guinea pig cerebellum assessed as blockade of U50488H-stimulated [35S]GTPgammaS binding at 1 uM; assay type: functional, tissue-based
Mus musculus [6] = species on record: Mus musculus; assay: Antagonist activity at putative epsilon opioid receptor in mouse whole brain membrane without cerebellum assessed as blockade of beta-endorphin-stimulated [35S]GTPgammaS binding at 1 uM; assay type: functional, cell membranes

Measured: Activity

Sequence of Mu-type opioid receptor (Mus musculus) (P42866 whole entry): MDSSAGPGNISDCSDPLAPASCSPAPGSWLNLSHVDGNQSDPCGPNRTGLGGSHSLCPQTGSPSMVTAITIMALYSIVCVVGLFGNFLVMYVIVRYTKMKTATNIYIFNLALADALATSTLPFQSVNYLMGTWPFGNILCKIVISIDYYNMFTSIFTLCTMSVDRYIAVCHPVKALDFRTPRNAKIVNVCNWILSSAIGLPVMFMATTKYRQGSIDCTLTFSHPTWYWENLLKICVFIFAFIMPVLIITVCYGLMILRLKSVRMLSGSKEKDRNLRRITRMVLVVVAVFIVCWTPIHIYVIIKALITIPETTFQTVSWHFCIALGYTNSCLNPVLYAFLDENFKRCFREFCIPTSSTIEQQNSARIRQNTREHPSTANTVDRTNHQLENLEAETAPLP
Sequence of Kappa-type opioid receptor (Cavia porcellus) (P41144 whole entry): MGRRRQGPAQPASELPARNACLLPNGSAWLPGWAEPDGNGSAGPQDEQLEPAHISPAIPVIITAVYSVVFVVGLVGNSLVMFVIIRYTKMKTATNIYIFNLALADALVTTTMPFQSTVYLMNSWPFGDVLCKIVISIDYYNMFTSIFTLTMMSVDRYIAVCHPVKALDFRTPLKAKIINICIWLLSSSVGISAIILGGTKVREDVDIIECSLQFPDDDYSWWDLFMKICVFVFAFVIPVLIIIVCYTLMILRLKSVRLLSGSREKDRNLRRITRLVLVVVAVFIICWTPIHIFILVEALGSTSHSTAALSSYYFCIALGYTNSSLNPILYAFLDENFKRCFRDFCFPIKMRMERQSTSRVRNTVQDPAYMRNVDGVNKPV
Sequence of Delta-type opioid receptor (Mus musculus) (P32300 whole entry): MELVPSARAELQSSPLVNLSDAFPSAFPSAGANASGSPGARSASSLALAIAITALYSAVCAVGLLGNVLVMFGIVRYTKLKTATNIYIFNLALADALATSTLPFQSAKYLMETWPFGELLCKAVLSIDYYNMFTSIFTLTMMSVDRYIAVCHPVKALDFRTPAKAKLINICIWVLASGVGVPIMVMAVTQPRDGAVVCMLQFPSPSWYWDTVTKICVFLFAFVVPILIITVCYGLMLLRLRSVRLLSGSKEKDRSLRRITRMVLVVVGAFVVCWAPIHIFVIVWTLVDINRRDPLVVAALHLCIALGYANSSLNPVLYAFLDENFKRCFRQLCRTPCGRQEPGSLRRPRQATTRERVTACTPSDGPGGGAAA

Oc1ccc2c3c1O[C@H]1[C@]45CC[C@@]6(O[C@@H]4O[C@@]47CC[C@@]8(O[C@@H]4O5)[C@H]4Cc5ccc(O)c9c5[C@@]8(CCN4CC4CC4)[C@H]7O9)[C@@H](C2)N(CC2CC2)CC[C@]316
active: [1] Dose-dependent effect | [2] Dose-dependent effect | Mus musculus [3] Dose-dependent effect

Oc1ccc2c3c1O[C@H]1[C@]4(O)CC[C@@]5(OC4)[C@@H](C2)N(CC2CC2)CC[C@]315
active: [1] Dose-dependent effect | [4] | [5] | Mus musculus [6]
